From US20150118214A1, “Pharmaceutical composition containing human cyclooxygenase and doxorubicin or doxorubicin analogue, preparation method therefor and use thereof in preparing drugs” (priority 2012, published 2015)

Experiments:
Assay type in all cases: in vivo, human
[1] = system: nephritis patients; assay: treatment of nephritis patients, rates by traditional standard; details: six or more cycles, course of seven days
Source text: Containing native cyclooxygenase (COX-2) doxorubicin pharmaceutical compositions of natural (atm) doxorubicin or a natural substance in the class of drugs for treating nephritis application preparation, nephritis patients diagnosed according to the usual Standard diagnosis; “effective”, “markedly”, “cure” and other standards are in accordance with the traditional standard. Dose of the drug present invention are: adult three times daily 1.8 g. Course of seven days. When six or more cycles, the treatment effect of contrast in the following table: […]

[2] = system: cancer (lymphoma) patients; assay: treatment of tumors, cancer (lymphoma) patients
Source text: Containing native human cyclooxygenase (COX-2), doxorubicin natural (atm) or natural substance class doxorubicin in the preparation of a pharmaceutical composition of a medicament for the treatment of tumors, cancer (lymphoma) patients diagnosed is the usual criteria for diagnosis; “effective”, “cured”, “cure” and the like in accordance with conventional criteria standards. Dose of the drug present invention are: adult three times a day, every 1.8 go for 7 days. When eight or more cycles, the treatment effect of contrast in the following table: […]

[3] = system: general inflammation in patients; assay: general anti-inflammatory analgesic use, general inflammation patients; details: two or more cycles
Source text: Containing native human cyclooxygenase (COX-2), doxorubicin natural (atm) or a pharmaceutical composition of doxorubicin substances of natural origin as a general anti-inflammatory analgesic drugs applied, general inflammation in patients diagnosed according to the usual criteria for diagnosis; “effective”, “cured”, “cure” and the like in accordance with conventional criteria standards. Dose of the drug present invention are: adult three times daily 1.8 g. Course of seven days When two or more cycles, the treatment effect of contrast in the following table: […]

**Q.** With CC(C)(C)NCC(O)COc1ccccc1C#N (stereo not drawn) [Bunitrolol] as the molecule, how does the Markedly [1] read?
**A.** Its Markedly is 59%.

**Q.** What about the Effective ([1]; invention drug adult three times daily 1.8 g) of the same molecule?
**A.** The Effective was 93.2%.

**Q.** For CC(=O)O[C@H]1C(=O)[C@@]2(C)[C@H]([C@H](OC(=O)c3ccccc3)[C@]3(O)C[C@H](OC(=O)[C@H](O)[C@@H](NC(=O)c4ccccc4)c4ccccc4)C(C)=C1C3(C)C)[C@]1(OC(C)=O)CO[C@@H]1C[C@@H]2O [Paclitaxel], which Cure ([2]; eight or more cycles) is on record?
**A.** Its Cure is 16.3%.

**Q.** What about the Invalid ([2]; eight or more cycles) of the same molecule?
**A.** The Invalid was 2.3%.

**Q.** And the Markedly ([2]; eight or more cycles)?
**A.** Its Markedly is 32.6%.

**Q.** What about the Effective ([2]; eight or more cycles of 7 days, invention drug adult three times a day 1.8 g) of the same molecule?
**A.** Its Effective is 48.8%.

**Q.** With [H]/N=C(/N)N[C@H]1[C@H](O)[C@@H](O)[C@H](O[C@@H]2O[C@@H](C)[C@](O)(C=O)[C@H]2O[C@@H]2O[C@@H](CO)[C@H](O)[C@@H](O)[C@@H]2NC)[C@@H](N/C(N)=N\[H])[C@@H]1O [Streptomycin] as the molecule, how does the Invalid [3] read?
**A.** The Invalid was 17.14%.

**Q.** And the Markedly [3]?
**A.** The Markedly was 78.57%.

**Q.** And the Effective ([3]; course of seven days, invention drug adult three times daily 1.8 g)?
**A.** The Effective was 14.29%.
